Assay results taken from article PMC7265429, “Characterization of a new small-molecule inhibitor of HDAC6 in glioblastoma” (Cell Death & Disease, 2020).

Test system: GNS166 cells
Assay: Microarray whole-transcriptome gene expression analysis
Assay type: cell-based, human
Conditions: DMSO vs SAHA, downregulated
Method: Whole-transcriptome analysis was performed from 300 ng of RNA using HuGene-2_0-st-v1 expression array (Affymetrix), which covers 48,226 transcripts. Raw data were first checked for quality purposes through the Affymetrix® Expression Console™ Software v1.4.1 and TAC software v4.0. Then, data were normalized using the Robust Multi-array Average (RMA) and analyzed by Limma tool. Probesets with FDR-corrected p-values smaller than 0.05 were selected. Functional enrichment on Gene Ontology (GO) biological processes was performed on a smaller subset of the differentially expressed genes (corrected p-value < 0.001) by means of Broad Institute GSEA. […] The data that support this study have been deposited in NCBI´s Gene Expression Omnibus and are accessible through GEO series accession number GSE143887.

`O=C(CCCCCCC(=O)Nc1ccccc1)NO` [SAHA, Suberoylanilide hydroxamic acid] was tested, and the “logFC IRAK1” value (transcript TC0X[…].hg.1) was -1.235, the “logFC B3GALT6” value (transcript TC0100006494.hg.1) was -0.9983 and the “logFC HMGN2” value (transcript TC0100007463.hg.1) was -1.008. The “logFC CDCA8” value (transcript TC0100007841.hg.1) was -1.807, the “logFC ERMAP” value (transcript TC0100008033.hg.1) was -2.3938 and the “logFC KIF2C” value (transcript TC0100008101.hg.1) was -1.858. The “logFC CMPK1” value (transcript TC0100008190.hg.1) was -1.434, the “logFC NEXN” value (transcript TC0100008807.hg.1) was -1.823 and the “logFC HIST2H2AA3” value (transcript TC0100009876.hg.1) was -1.529. For the same compound, the “logFC HIST2H3A” value (transcript TC0100009877.hg.1) was -1.612, the “logFC GABPB2” value (transcript TC0100009939.hg.1) was -1.449 and the “logFC CKS1B” value (transcript TC0100010100.hg.1) was -1.171. For the same compound, the “logFC PMF1” value (transcript TC0100010161.hg.1) was -1.537, the “logFC NUF2” value (transcript TC0100010397.hg.1) was -2.331 and the “logFC FAM163A” value (transcript TC0100010786.hg.1) was -1.762. For the same compound, the “logFC CENPF” value (transcript TC0100011581.hg.1) was -1.482, the “logFC EPHA2” value (transcript TC0100013028.hg.1) was -1.043 and the “logFC STMN1” value (transcript TC0100013369.hg.1) was -1.036. For the same compound, the “logFC HIST2H3A” value (transcript TC0100015701.hg.1) was -1.662, the “logFC ASPM” value (transcript TC0100016831.hg.1) was -1.487 and the “logFC DDX59” value (transcript TC0100016893.hg.1) was -1.42. For the same compound, the “logFC NUCKS1” value (transcript TC0100017075.hg.1) was -1.264, the “logFC EIF2D” value (transcript TC0100017100.hg.1) was -1.459 and the “logFC CD34” value (transcript TC0100017142.hg.1) was -2.059. The “logFC LIN9” value (transcript TC0100017523.hg.1) was -1.223, the “logFC ZBTB8A” value (transcript TC0100018209.hg.1) was -1.532 and the “logFC HIST2H2AA4” value (transcript TC0100018482.hg.1) was -1.569. The “logFC IAH1” value (transcript TC0200006648.hg.1) was -1.549, the “logFC RRM2” value (transcript TC0200006677.hg.1) was -1.424 and the “logFC KCNIP3” value (transcript TC0200008464.hg.1) was -2.439. The “logFC NCAPH” value (transcript TC0200008502.hg.1) was -2.071, the “logFC GALNT5” value (transcript TC0200009739.hg.1) was -2.15 and the “logFC CFLAR” value (transcript TC0200010443.hg.1) was -1.832. The “logFC ADI1” value (transcript TC0200011551.hg.1) was -2.286, the “logFC EVA1A” value (transcript TC0200013135.hg.1) was -1.744 and the “logFC NMI” value (transcript TC0200014610.hg.1) was -2.309. The “logFC SPC25” value (transcript TC0200014845.hg.1) was -1.44, the “logFC SLC16A14” value (transcript TC0200015971.hg.1) was -1.405 and the “logFC HJURP” value (transcript TC0200016099.hg.1) was -1.261. The “logFC CENPA” value (transcript TC0200016417.hg.1) was -1.421, the “logFC SPDYA” value (transcript TC0200016423.hg.1) was -1.919 and the “logFC ACYP2” value (transcript TC0200016447.hg.1) was -1.266. The “logFC FANCD2” value (transcript TC0300006575.hg.1) was -1.767, the “logFC KIF15” value (transcript TC0300007223.hg.1) was -1.9928 and the “logFC ARHGAP31” value (transcript TC0300008467.hg.1) was -1.69. The “logFC FAIM” value (transcript TC0300008952.hg.1) was -1.871, the “logFC RTP4” value (transcript TC0300009799.hg.1) was -1.468 and the “logFC SUCLG2” value (transcript TC0300011436.hg.1) was -1.146. For the same compound, the “logFC BDH1” value (transcript TC0300013751.hg.1) was -1.665, the “logFC NAALADL2” value (transcript TC0300013904.hg.1) was -1.839 and the “logFC KCNMB2” value (transcript TC0300013906.hg.1) was -1.816. The “logFC NEIL3” value (transcript TC0400009396.hg.1) was -0.9384, the “logFC CCNA2” value (transcript TC0400011748.hg.1) was -1.45 and the “logFC GPM6A” value (transcript TC0400012473.hg.1) was -1.528. The “logFC TRIP13” value (transcript TC0500006472.hg.1) was -1.825, the “logFC NDUFS6” value (transcript TC0500006523.hg.1) was -0.9474 and the “logFC IL7R” value (transcript TC0500007138.hg.1) was -2.627. The “logFC NNT” value (transcript TC0500007303.hg.1) was -1.728, the “logFC CCNB1” value (transcript TC0500007665.hg.1) was -1.603 and the “logFC KIF20A” value (transcript TC0500008777.hg.1) was -2.05. The “logFC HIGD2A” value (transcript TC0500009587.hg.1) was -1.228, the “logFC NSD1” value (transcript TC0500009610.hg.1) was -1.443 and the “logFC ARSB” value (transcript TC0500011228.hg.1) was -1.571. For the same compound, the “logFC BRD8” value (transcript TC0500012162.hg.1) was -1.077, the “logFC CRHBP” value (transcript TC0500013193.hg.1) was -2.74 and the “logFC PCBD2” value (transcript TC0500013230.hg.1) was -1.097. For the same compound, the “logFC FAM169A” value (transcript TC0500013328.hg.1) was -1.569, the “logFC HIST1H4C” value (transcript TC0600007268.hg.1) was -1.755 and the “logFC HIST1H2BF” value (transcript TC0600007282.hg.1) was -1.711. The “logFC HIST1H4E” value (transcript TC0600007284.hg.1) was -2.005, the “logFC HIST1H2AE” value (transcript TC0600007285.hg.1) was -1.564 and the “logFC HIST1H2AL” value (transcript TC0600007380.hg.1) was -1.235. The “logFC GTF3C6” value (transcript TC0600009140.hg.1) was -2.124, the “logFC HIST1H4B” value (transcript TC0600011123.hg.1) was -1.235 and the “logFC HIST1H3B” value (transcript TC0600011124.hg.1) was -1.868. For the same compound, the “logFC HIST1H3D” value (transcript TC0600011135.hg.1) was -1.444, the “logFC HIST1H2BG” value (transcript TC0600011136.hg.1) was -1.568 and the “logFC HIST1H4H” value (transcript TC0600011145.hg.1) was -1.26. The “logFC HIST1H2BJ” value (transcript TC0600011184.hg.1) was -1.604, the “logFC HIST1H2BK” value (transcript TC0600011185.hg.1) was -1.804 and the “logFC PSMB8” value (transcript TC0600011507.hg.1) was -1.143. For the same compound, the “logFC DNPH1” value (transcript TC0600011870.hg.1) was -1.264, the “logFC FBXO5” value (transcript TC0600013602.hg.1) was -1.287 and the “logFC HIST1H2AG” value (transcript TC0600014083.hg.1) was -2.001. The “logFC NUDT3” value (transcript TC0600014283.hg.1) was -1.135, the “logFC LANCL2” value (transcript TC0700007610.hg.1) was -1.812 and the “logFC GTF2I” value (transcript TC0700008010.hg.1) was -1.635. For the same compound, the “logFC MEPCE” value (transcript TC0700008542.hg.1) was -1.622 and the “logFC CAV1” value (transcript TC0700008873.hg.1) was -0.9681.
